# Reference: patent publication US20100120879A1, “INSECTICIDES AS SAFENER FOR FUNGICIDES WITH PHYTOTOXIC ACTION” (priority 2007, published 2010)
# Assays:
# Phakopsora pachyrhizi = test: Fungicidal activity against soybean rust after seed treatment; assay type: in vivo; conditions: triticonazole 50 g, fipronil 50 g, gibberellic acid 1 g a.s. per 100 kg seeds
# [1] = system: soybeans, variety "Conquista"; test: Vitality of the plants 14 days after sowing (visual score); conditions: visual scale 0 to 10, untreated = 5, each point = 20% improvement or deterioration, triticonazole 50 g, fipronil 50 g, gibberellic acid 1 g a.s. per 100 kg seeds
# wheat = wheat treated with the azole fungicide; F. Montfort et al., Pesticide Science 46(4), 1996; cited from earlier work
compound,measurement,setting,value
"CC1(C)CCC(=Cc2ccc(Cl)cc2)C1(O)Cn1cncn1 (centres unmarked) [Triticonazole, triticonazole]",Infection (percentage of diseased leaf area),"Phakopsora pachyrhizi; leaves in the middle part of the plant, 35 days after sowing, untreated 10.5",9%
same,Infection (percentage of diseased leaf area),"Phakopsora pachyrhizi; lower part of the plant, 21 days after sowing, untreated 8.5",0%
same,Infection (percentage of diseased leaf area),"Phakopsora pachyrhizi; lower part of the plant, 35 days after sowing, untreated 70",47%
same,Vitality,[1],2
same,Longitudinal growth of treated wheat,wheat,greatly reduced longitudinal growth
